Results on three molecules are retold here after patent US8273776B2, “Biphenyl oxadiazole derivatives as sphingosine-1-phosphate receptors modulators” (Allergan, Inc, priority 2010, dated 2012).

For this experiment, the target named is T1, human S1P1 receptor (Homo sapiens, UniProt P21453).
T1 construct: expressed in transfected cells; membranes used
The experiment is described as follows: GTP γ35S binding assay for S1P1 activity. As to conditions: for % S1P1 STIMULATION @ 5 μM (%): GTPγ^35S binding, compound at 5 μM; for EC50: membranes of cells stably expressing the S1P1 receptor, test compounds 0.08 to 5,000 nM, read-out: S1P1 GTPγ^35S EC50. In kind it is biochemical. The method, then:
Compounds were synthesized and tested for S1P1 activity using the GTP γ^35S binding assay. These compounds may be assessed for their ability to activate or block activation of the human S1P1 receptor in cells stably expressing the S1P1 receptor.
GTP γ^35S binding was measured in the medium containing (mM) HEPES 25, pH 7.4, MgCl2 10, NaCl 100, dithitothreitol 0.5, digitonin 0.003%, 0.2 nM GTP γ^35S, and 5 μg membrane protein in a volume of 150 μl. Test compounds were included in the concentration range from 0.08 to 5,000 nM unless indicated otherwise. Membranes were incubated with 100 μM 5′-adenylylimmidodiphosphate for 30 min, and subsequently with 10 μM GDP for 10 min on ice. Drug solutions and membrane were mixed, and then reactions were initiated by adding GTP γ^35S and continued for 30 min at 25° C. Reaction mixtures were filtered over Whatman GF/B filters under vacuum, and washed three times with 3 mL of ice-cold buffer (HEPES 25, pH7.4, MgCl2 10 and NaCl 100). Filters were dried and mixed with scintillant, and counted for ^35S activity using a β-counter. Agonist-induced GTP γ^35S binding was obtained by subtracting that in the absence of agonist. Binding data were analyzed using a non-linear regression method. In case of antagonist assay, the reaction mixture contained 10 nM S1P in the presence of test antagonist at concentrations ranging from 0.08 to 5000 nM.

T1 sequence (P21453 whole entry): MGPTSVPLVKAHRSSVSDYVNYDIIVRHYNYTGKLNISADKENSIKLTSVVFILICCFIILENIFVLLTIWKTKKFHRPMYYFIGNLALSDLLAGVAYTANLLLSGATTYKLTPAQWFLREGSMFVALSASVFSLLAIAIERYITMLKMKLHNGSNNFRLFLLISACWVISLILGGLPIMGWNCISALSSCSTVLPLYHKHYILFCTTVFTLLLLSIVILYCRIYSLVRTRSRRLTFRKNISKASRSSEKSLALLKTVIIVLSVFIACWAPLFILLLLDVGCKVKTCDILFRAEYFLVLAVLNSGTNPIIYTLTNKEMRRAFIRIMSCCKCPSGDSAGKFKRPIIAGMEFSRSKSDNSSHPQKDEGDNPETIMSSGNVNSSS

Turning to `CC(C)Oc1ccc(-c2nc(-c3ccccc3-c3cccc(OCCCNCC(=O)O)c3)no2)cc1C#N` [Compound 3, (3-{2′-[5-(3-Cyano-4-isopropoxy-phenyl)-[1,2,4]oxadiazol-3-yl]-biphenyl-3-yloxy}-propylamino)-acetic acid], the “% S1P1 STIMULATION @ 5 μM (%)” value was found to be 85% and the EC50 came to 82 nM.

Take `O=C(O)CNCCCOc1cccc(-c2ccccc2-c2noc(-c3ccc(-c4cccc(F)c4)c(C(F)(F)F)c3)n2)c1` [Compound 2, (3-{2′-[5-(3′-Fluoro-2-trifluoromethyl-biphenyl-4-yl)-[1,2,4]oxadiazol-3-yl]-biphenyl-3-yloxy}-propylamino)acetic acid]: the “% S1P1 STIMULATION @ 5 μM (%)” value turned out to be 96% and the EC50 was determined as 552 nM.

`CC(C)Oc1ccc(-c2nc(-c3ccccc3-c3cccc(OCCCO)c3)no2)cc1C#N` [Compound 1, 5-{3-[3′-(3-Hydroxy-propoxy)-biphenyl-2-yl]-[1,2,4]oxadiazol-5-yl}-2-isopropoxy-benzonitrile]: the “% S1P1 STIMULATION @ 5 μM (%)” value is listed as 76% and the EC50 amounted to 1420 nM.

One may read the EC50 as the concentration needed to bring the measured effect to its halfway point.
